Assays:
barnyardgrass [1] = experiment: Test B flooded paddy test; format: in vivo, Echinochloa crus-galli; details: 1000 g ai/ha, visual rating, scale 0 to 100 (0 no effect, 100 complete control), 13 to 15 days
Outline: (§1)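 Visual ratings, 0 (no effect) to 100 (complete control), made versus controls after 13–15 d greenhouse. Paddy plants treated at 2-leaf stage; postemergence plants at 1- to 4-leaf stage, 2–18 cm tall.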

[2] = system: small flower umbrella sedge; experiment: Test B flooded paddy test; format: in vivo, Cyperus difformis; details: 1000 g ai/ha, visual rating, scale 0 to 100 (0 no effect, 100 complete control), 13 to 15 days
Outline: as §1

cocklebur = experiment: Test B pre-/postemergence herbicide test; format: in vivo, Xanthium strumarium; details: for Plant response rating, Cocklebur: preemergence; for Cocklebur plant response rating: postemergence, visual rating, scale 0 (no effect) to 100 (complete control)
Outline: (§2)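 Visual rating, 0 (no effect) to 100 (complete control), versus untreated controls after 13–15 d in greenhouse. Pre- and postemergence applications (postemergence plants 2–18 cm, 1–4 leaves); flooded paddy arm at 2-leaf stage. Compounds in non-phytotoxic solvent plus surfactant.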

barnyardgrass [3] = experiment: Test A pre-/postemergence herbicide test; format: in vivo, Echinochloa crus-galli
Outline: (§3)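 Both application timings were run together: directed soil spray over freshly planted seeds in sandy loam, and runoff spray onto 2–10 cm seedlings. Evaluation after ~10 days in greenhouse used a 0–100 visual scale versus untreated controls.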

rice [4] = experiment: Test B flooded paddy test; format: in vivo, Oryza sativa; details: 1000 g ai/ha, visual rating, scale 0 to 100 (0 no effect, 100 complete control), 13 to 15 days
Outline: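 Greenhouse test; postemergence application to plants at 1–4 leaves (2–18 cm); paddy species at 2 leaves; evaluated visually vs controls at 13–15 days; scale 0–100 (100 = complete control).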

large crabgrass [5] = experiment: Test A pre-/postemergence herbicide test; format: in vivo, Digitaria sanguinalis
Outline: as §3

lambsquarters = experiment: Test B pre-/postemergence herbicide test; format: in vivo, Chenopodium album; details: for Plant response rating, Lambsquarters: preemergence; for Lambsquarters plant response rating: postemergence, visual rating, scale 0 (no effect) to 100 (complete control)
Outline: (§4)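 Greenhouse pot assay with simultaneous preemergence (treated seed) and postemergence (2–18 cm seedlings) applications of surfactant-containing, non-phytotoxic solvent formulations. Response scored visually 13–15 days later on a 0–100 scale, 100 meaning complete control.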

large crabgrass [6] = experiment: Test B pre-/postemergence herbicide test; format: in vivo, Digitaria sanguinalis; details: for Plant response rating, Crabgrass, Large: preemergence; for Crabgrass, Large plant response rating: postemergence, visual rating, scale 0 (no effect) to 100 (complete control)
Outline: as §4

morningglory [7] = experiment: Test B pre-/postemergence herbicide test; format: in vivo, Ipomoea coccinea; details: for Plant response rating, Morningglory: preemergence; for Morningglory plant response rating: postemergence, visual rating, scale 0 (no effect) to 100 (complete control)
Outline: as §2

redroot pigweed = experiment: Test A pre-/postemergence herbicide test; format: in vivo, Amaranthus retroflexus
Outline: as §3

morningglory [8] = experiment: Test A pre-/postemergence herbicide test; format: in vivo, Ipomoea spp.
Outline: as §3

Surinam grass = experiment: Test B pre-/postemergence herbicide test; format: in vivo, Urochloa decumbens; details: for Plant response rating, Surinam Grass: preemergence; for Surinam Grass plant response rating: postemergence, visual rating, scale 0 (no effect) to 100 (complete control)
Outline: as §4

velvetleaf [9] = experiment: Test A pre-/postemergence herbicide test; format: in vivo, Abutilon theophrasti
Outline: as §3

velvetleaf [10] = experiment: Test B pre-/postemergence herbicide test; format: in vivo, Abutilon theophrasti; details: for Plant response rating, Velvetleaf: preemergence; for Velvetleaf plant response rating: postemergence, visual rating, scale 0 (no effect) to 100 (complete control)
Outline: as §4

giant foxtail [11] = experiment: Test A pre-/postemergence herbicide test; format: in vivo, Setaria faberi
Outline: as §3

pigweed = experiment: Test B pre-/postemergence herbicide test; format: in vivo, Amaranthus retroflexus; details: for Plant response rating, Pigweed: preemergence; for Pigweed plant response rating: postemergence, visual rating, scale 0 (no effect) to 100 (complete control)
Outline: as §4

corn = experiment: Test B pre-/postemergence herbicide test; format: in vivo, Zea mays; details: for Plant response rating, Corn: preemergence; for Corn plant response rating: postemergence, visual rating, scale 0 (no effect) to 100 (complete control)
Outline: as §4

giant foxtail [12] = experiment: Test B pre-/postemergence herbicide test; format: in vivo, Setaria faberi; details: for Plant response rating, Foxtail, Giant: preemergence; for Foxtail, Giant plant response rating: postemergence, visual rating, scale 0 (no effect) to 100 (complete control)
Outline: as §4

blackgrass = experiment: Test B postemergence herbicide test; format: in vivo, Alopecurus myosuroides; details: postemergence, visual rating, scale 0 (no effect) to 100 (complete control)
Outline: as §1

wheat = experiment: Test B postemergence herbicide test; format: in vivo, Triticum aestivum; parameters: key to Wheat plant response rating: 0 = no effect, 100 = complete control; details: postemergence, 500 g ai/ha; visual rating, scale 0 (no effect) to 100 (complete control)
Outline: (§5)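 Plants grow to 1- to 4-leaf stage (2–18 cm) for postemergence spraying, or to 2-leaf stage for the paddy test. Formulated compound is applied. Greenhouse holding lasts 13–15 days. Response is scored visually relative to controls, 0 no effect to 100 complete control; a dash means no result.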

ducksalad = experiment: Test B flooded paddy test; format: in vivo, Heteranthera limosa; details: 1000 g ai/ha, visual rating, scale 0 to 100 (0 no effect, 100 complete control), 13 to 15 days
Outline: as §1

wild oat = experiment: Test B postemergence herbicide test; format: in vivo, Avena fatua; details: postemergence, visual rating, scale 0 (no effect) to 100 (complete control)
Outline: as §5

barnyardgrass [13] = experiment: Test B pre-/postemergence herbicide test; format: in vivo, Echinochloa crus-galli; details: for Plant response rating, Barnyardgrass: preemergence; for Barnyardgrass plant response rating: postemergence, visual rating, scale 0 (no effect) to 100 (complete control)
Outline: as §2

rice [14] = experiment: Test B pre-/postemergence herbicide test; format: in vivo, Oryza sativa; details: preemergence
Outline: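 Species tested were Echinochloa crus-galli, Ipomoea coccinea, Xanthium strumarium and Oryza sativa, treated both before emergence and at the 1- to 4-leaf stage; rice and barnyardgrass were also tested under flooding at 2 leaves. Greenhouse incubation lasted 13–15 days before visual 0–100 scoring.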

[15] = 500 g ai/ha, visual rating 0-100, 0 no effect, 100 complete control
[16] = 125 g ai/ha, 0 to 100 scale, 0 is no effect, 100 is complete control
[17] = Postemergence, 500 g ai/ha, 0 to 100 scale, 0 no effect, 100 complete control
[18] = Postemergence, 2000 g ai/ha, 0 to 100 scale, 0 no effect, 100 complete control
[19] = Preemergence, 500 g ai/ha, visual rating, 0 to 100 scale (0 no effect, 100 complete control)
[20] = Preemergence, 2000 g ai/ha, visual rating, 0 to 100 scale (0 no effect, 100 complete control)
[21] = preemergence, 500 g ai/ha, visual injury, 0 to 100 scale (0 no effect, 100 complete control)

CCn1nc(C(C)(C)C)cc1C(=O)Nc1nccc(OC)n1 [Compound 165]
Barnyardgrass plant response rating (barnyardgrass [1]): 0 | Sedge, Umbrella plant response rating [2]: 0 | Plant response rating, Cocklebur (cocklebur; [15]): 0 | Cocklebur plant response rating (cocklebur; 125 g ai/ha): 0 | Cocklebur plant response rating (cocklebur; 500 g ai/ha): 0 | Plant response rating, Cocklebur (cocklebur; [16]): 0 | Barnyardgrass plant response rating (barnyardgrass [3]; [17]): 0 | Plant response rating, Barnyardgrass (barnyardgrass [3]; [18]): 0 | Barnyardgrass plant response rating (barnyardgrass [3]; [19]): 0 | Barnyardgrass plant response rating (barnyardgrass [3]; [20]): 0 | Rice plant response rating (rice [4]): 0 | Crabgrass, Large plant response rating (large crabgrass [5]; [17]): 0 | Plant response rating, Crabgrass, Large (large crabgrass [5]; [18]): 0 | Crabgrass, Large plant response rating (large crabgrass [5]; [19]): 0 | Crabgrass, Large plant response rating (large crabgrass [5]; [20]): 0 | Plant response rating, Lambsquarters (lambsquarters; [15]): 0 | Lambsquarters plant response rating (lambsquarters; 125 g ai/ha): 0 | Lambsquarters plant response rating (lambsquarters; 500 g ai/ha): 0 | Plant response rating, Lambsquarters (lambsquarters; [16]): 0 | Plant response rating, Crabgrass, Large (large crabgrass [6]; [15]): 0 | Crabgrass, Large plant response rating (large crabgrass [6]; 125 g ai/ha): 0 | Crabgrass, Large plant response rating (large crabgrass [6]; 500 g ai/ha): 0 | Plant response rating, Crabgrass, Large (large crabgrass [6]; [16]): 0 | Plant response rating, Morningglory (morningglory [7]; [15]): 0 | Morningglory plant response rating (morningglory [7]; 125 g ai/ha): 0 | Morningglory plant response rating (morningglory [7]; 500 g ai/ha): 0 | Plant response rating, Morningglory (morningglory [7]; [16]): 0 | Pigweed plant response rating (redroot pigweed; [17]): 0 | Plant response rating, Pigweed (redroot pigweed; [18]): 5 | Pigweed plant response rating (redroot pigweed; [20]): 20 | Pigweed plant response rating (redroot pigweed; [21]): 0 | Morningglory plant response rating (morningglory [8]; [17]): 5 | Plant response rating, Morningglory (morningglory [8]; [18]): 5 | Morningglory plant response rating (morningglory [8]; [19]): 0 | Morningglory plant response rating (morningglory [8]; [20]): 0 | Plant response rating, Surinam Grass (Surinam grass; [15]): 0 | Surinam Grass plant response rating (Surinam grass; 125 g ai/ha): 0 | Surinam Grass plant response rating (Surinam grass; 500 g ai/ha): 0 | Plant response rating, Surinam Grass (Surinam grass; [16]): 0 | Velvetleaf plant response rating (velvetleaf [9]; [17]): 10 | Plant response rating, Velvetleaf (velvetleaf [9]; [18]): 20 | Velvetleaf plant response rating (velvetleaf [9]; [20]): 5 | Velvetleaf plant response rating (velvetleaf [9]; [21]): 0 | Plant response rating, Velvetleaf (velvetleaf [10]; [15]): 0 | Velvetleaf plant response rating (velvetleaf [10]; 125 g ai/ha): 0 | Velvetleaf plant response rating (velvetleaf [10]; 500 g ai/ha): 0 | Plant response rating, Velvetleaf (velvetleaf [10]; [16]): 0 | Foxtail, Giant plant response rating (giant foxtail [11]; [17]): 0 | Plant response rating, Foxtail, Giant (giant foxtail [11]; [18]): 0 | Foxtail, Giant plant response rating (giant foxtail [11]; [19]): 0 | Foxtail, Giant plant response rating (giant foxtail [11]; [20]): 0 | Plant response rating, Pigweed (pigweed; [15]): 0 | Pigweed plant response rating (pigweed; 125 g ai/ha): 0 | Pigweed plant response rating (pigweed; 500 g ai/ha): 0 | Plant response rating, Pigweed (pigweed; [16]): 0 | Plant response rating, Corn (corn; [15]): 0 | Corn plant response rating (corn; 125 g ai/ha): 0 | Corn plant response rating (corn; 500 g ai/ha): 0 | Plant response rating, Corn (corn; [16]): 0 | Plant response rating, Foxtail, Giant (giant foxtail [12]; [15]): 0 | Foxtail, Giant plant response rating (giant foxtail [12]; 125 g ai/ha): 0 | Foxtail, Giant plant response rating (giant foxtail [12]; 500 g ai/ha): 0 | Plant response rating, Foxtail, Giant (giant foxtail [12]; [16]): 0 | Blackgrass plant response rating (blackgrass; 125 g ai/ha): 0 | Blackgrass plant response rating (blackgrass; 500 g ai/ha): 0 | Wheat plant response rating (wheat): 0 | Ducksalad plant response rating (ducksalad): 0 | Oat, Wild plant response rating (wild oat; 125 g ai/ha): 0 | Oat, Wild plant response rating (wild oat; 500 g ai/ha): 0 | Plant response rating, Barnyardgrass (barnyardgrass [13]; [15]): 0 | Barnyardgrass plant response rating (barnyardgrass [13]; 125 g ai/ha): 0 | Barnyardgrass plant response rating (barnyardgrass [13]; 500 g ai/ha): 0 | Plant response rating, Barnyardgrass (barnyardgrass [13]; [16]): 0 | Plant response rating, Rice (rice [14]; [15]): 0 | Plant response rating, Rice (rice [14]; [16]): 0

From patent publication US20060069132A1, “Azolecarboxamide herbicides” (priority 2004, published 2006)
